Test results reported in US6548543B1, “Remedies or preventives containing cyclopentenone compounds as the active ingredient” (Takara Shuzo Co., Ltd., priority 1998, dated 2003).

Tests used:
[1] = test system: 70-kDa heat shock protein; test: Induction of 70-kDa heat shock protein in HL-60 cells (Western blot); assay type: cell-based; parameters: key to Degree of induction of 70-kDa heat shock protein: − means that no induction was observed; ± means that a slight induction was observed; + represents the induction level; ++: Increased number of + means increased induction; +++: Increased number of + means increased induction; settings: HL-60, 6 hours
Protocol: (1) 5 ml of RPMI 1640 medium containing 10% fetal calf serum and HL-60 (ATCC CCL-240) cells at a concentration of 2×10^5 cells/ml was placed in each well of a 6-well plate. The plate was incubated at 37° C. for 24 hours in the presence of 5% CO2. Dipropionylcyclopentenone, diisobutyrylcyclopentenone or di-2-hexenoylcyclopentenone at a final concentration of 0, 0.63, 1.3, 2.5, 5, 10 or 20 μM was then added thereto. The incubation was continued for additional 6 hours.
After incubation, the cell number was counted. The cells were harvested by centrifugation, washed with PBS to prepare cells treated with one of the samples. Cells that were cultured in the same manner after heated at 45° C. for 10 minutes were also prepared.
These treated cells were used for SDS-PAGE according to the method as described in Molecular Cloning [Cold Spring Harbor Laboratory Press (1989)]. The treated cells were suspended in SDS-PAGE Sample buffer at a concentration of 2.5×10^6 cells/ml. The cell suspensions were treated at 100° C. for 10 minutes. 5 μl each of the cell suspensions was applied to two SDS-PAGE gels (5% stacking gel, 10% separation gel) and electrophoresed. One of the gels was subjected to Coomassie staining. The other gel was blotted onto a polyvinylidene difluoride transfer membrane (Immobilon™, Millipore, Cat. #IPVH000-10). The membrane was blocked at 4° C. overnight using Block Ace (Dainippon Pharmaceutical, Cat. #UK-B25).
The blocked membrane was reacted with a monoclonal antibody HSP72/73(Ab-1) (Oncogene Research Products, Cat. #HSP01), which specifically reacts with heat-inducible 70-kDa heat shock protein. The membrane was washed with TBS containing 0.05% Tween 20 followed by TBS. The membrane was then reacted with a peroxidase-conjugated secondary antibody HRP-Rabbit Anti-Mouse IgG (H+L) (Zymed Laboratories, Inc., Cat. #61-6520), and then washed as described above. The membrane reacted with the primary and secondary antibodies was reacted with a chemiluminol reagent Renaissance™ (Dupont NEN, Cat. #NEL-100). The membrane was then exposed to an X-ray film to confirm the induction of 70-kDa heat shock protein.

[2] = test system: Candida albicans TIMM0136; test: Antifungal activity, growth inhibition; assay type: cell-based; settings: 10 μl of solution at 100 or 500 μg/ml added to 100 μl culture; 30° C., 48 hours
Protocol: Dipropionylcyclopentenone, diisobutyrylcyclopentenone and di-2-hexenoylcyclopentenone were used to examine their antifungal activities against Candida albicans TIMM0136.
Candida albicans cells were cultured overnight in YNBG medium containing 0.67% Yeast Nitrogen Base (Difco) and 1.0% glucose (seed culture). The culture was then diluted with fresh Yeast Nitrogen Base medium to a concentration of 1×10^6 cells/ml. 100 μl of the dilution was dispensed into each well of a 96-well microtiter plate.
10 μl each of solutions of dipropionylcyclopentenone, diisobutyrylcyclopentenone or di-2-hexenoylcyclopentenone in 70% ethanol at a concentration of 100 μg/ml or 500 μg/ml, or 10 μl of 70% ethanol solution was added to the well. The plate was incubated without shaking at 30° C. for 48 hours (main culture).

[3] = Single oral dose toxicity; assay type: in vivo; settings: mouse, oral, single dosage of 100 mg/kg
Protocol: No toxicity is observed when a physiologically effective amount of the cyclopentenone derivative or an optical isomer thereof, or a salt thereof obtained according to the present invention is administered.

[4] = test system: spleen lymphocytes stimulated with Con A; test: Lymphocyte blastogenesis stimulated with Con A, 3H-thymidine uptake; assay type: cell-based, ddY mouse; settings: 10 μM
Protocol: (1) A spleen was taken out from ddY mouse (male, 7 weeks old, purchased from Japan SLC), finely minced and suspended in RPMI-1640 medium containing 10% FCS (HyClone) to obtain a single cell suspension. The cell suspension was seeded into a plastic Petri dish and cultured at 37° C. for 2 hours in a CO2 incubator to remove adhesive cells adhered to the dish. Non-adhesive cells were used as spleen lymphocytes. 200 μl of suspension of the spleen lymphocytes at a cell concentration of 2×10^6/ml was seeded into each well of a 96-well microtiter plate. Dipropionylcyclopentenone at a varying concentration was added to each well other than the control well. Furthermore, 5 μg of Con A (Nacalai Tesque) was added to each well. The plate was incubated at 37° C. for 1 day in a CO2 incubator. After incubation, 1 μCi of ^3H-thymidine was added to each well. After culturing for additional 1 day, the uptake into cells was measured using a liquid scintillation counter.
FIG. 7 illustrates the relationship between the concentration of dipropionylcyclopentenone and the amount of ^3H-thymidine uptake. The horizontal axis represents dipropionylcyclopentenone concentration (μM) and the vertical axis represents the ^3H-thymidine uptake (CPM). The open bar represents the ^3H-thymidine uptake without stimulation.

Mouse solid tumor Meth A = test: Mouse solid tumor Meth A, weight of cancer; assay type: in vivo, BALB/c mouse; settings: subcutaneous at tumor site for successive 5 days, after 2 weeks
Protocol: (2) Mouse solid tumor Meth A (2×10^6 cells/mouse) was subcutaneously injected into a back of a 8-weeks old female BALB/c mouse. Subsequently, dipropionylcyclopentenone was subcutaneously injected at the same site for successive 5 days. Saline was subcutaneously injected to a control group in a similar manner. Each group consisted of 8 mice.
After 2 weeks, the cancerous tissue formed in the back of the mouse was taken out and the weight of the tissue was measured.

With `CCC(=O)OC1C=CC(=O)C1OC(=O)CC` (stereo not shown) the “Degree of induction of 70-kDa heat shock protein” value (shortened to “Degree”) ([1]; 0.63 μM) was “−”, the “Degree” value ([1]; 1.3 μM) was “±” and the “Degree” value ([1]; 2.5 μM) was “+”. The “Degree” value ([1]; 5 μM) was “+++”, the “Degree” value ([1]; 10 μM) was “++” and the “Degree” value ([1]; 20 μM) was “++”. For the same compound, the “Minimum growth inhibitory concentration” value [2] was 500 µg/mL, the “Death after single oral administration” value [3] was “no death was observed” and the “Inhibition of proliferation of mouse lymphocytes stimulated with Con A (FIG. 7)” value [4] was “almost completely inhibited”. For the same compound, the Inhibition rate (Mouse solid tumor Meth A) was 92.3%, the “Mice in which no cancerous tissue was formed” value (Mouse solid tumor Meth A) was 5 out of 8 and the “Weight of cancer mean ± SE” value (Mouse solid tumor Meth A) was 0.05 ± 0.08 g. For the same compound, the “Weight of cancer mean ± SE” value (Mouse solid tumor Meth A; listed as dipropionylcyclopentenone) was 0.05 g.
